According to patent US8334316B2, “Substituted organosulfur compounds and methods of using thereof” (ACEA Biosciences, Inc., priority 2004, dated 2012):
Values joined by “and” are separate entries in the source; they are usually repeats but may differ in a detail not shown here. Identical values can stand only once. Marks after values point to notes of the source that are not given here.

What was measured:
[1] = test system: P388 lymphocytic leukemia; experiment: Murine P388 lymphocytic leukemia model (intraperitoneal transplantation), life span; type: in vivo, mouse; conditions: 50 mg/kg/d iv x7 qd
[2] = test system: Bcap-37 human breast cancer; experiment: Bcap-37 human breast cancer xenograft in nude mice, dosing from 24 h after transplantation (Example 3); type: in vivo
Source text: (§1) Both male and female mice were used. […] Test control. […] Preparation and Administration of Test Compounds. […] For human tumor xenograft model, all used materials, including animal food, animal cage, supporting materials and apparatus contacted by animals, were high-pressure sterilized. Nude mice were maintained in laminar flow shelves under SPF condition. After tumor transplantation, mouse weight and tumor size in each compound dosage group were dynamically monitored and plotted.

HCT-8 human colon cancer = HCT-8 human colon cancer xenograft in nude mice (Example 3); type: in vivo; conditions: 50 mg/kg/d iv x7 qd
Source text: as §1

[3] = test system: ao10/17 human ovarian cancer; experiment: ao10/17 human ovarian cancer xenograft in nude mice (Example 4); type: in vivo; conditions: for Body weight of mice / Mice with palpable tumor / total mice / Tumor volume (cm^3): 50 mg/kg iv x7 qd
Procedure: Only female mice were used in this study. […] The high, middle and low doses of ACEA100108 were 50, […] and 8 mg/kg/d, respectively.
Preparation and Administration of Test Compounds. […] The high, middle and low dose of compound ACEA100108 was 50, 20 and 8 mg/kg, respectively.
The tumor tissues were grounded in normal saline (1:6 for tumor volume to saline volume) and tumor cell suspensions were prepared in the normal saline.
For the human ovarian cancer xenograft model, all used materials, including animal food, animal cage, supporting materials and apparatus contacted by animals, were high-pressure sterilized. Nude mice were maintained in laminar flow shelves under SPF condition. After tumor transplantation, mouse weight and tumor size in each compound dosage group were dynamically monitored and plotted. The tumor size was determined by measuring the major axis (a) and minor axis (b) of the tumor, and tumor volume was calculated according to the equation (3) in Example 3.

[4] = test system: purified bovine brain tubulin; experiment: In vitro microtubule assembly assay with pure (MAP-free) tubulin, light scattering OD400; type: biochemical; conditions: all doses (especially prominent at 9 uM)
Procedure: Microtubule Assembly Assays. Microtubule seeds were synthesized by incubating purified bovine brain tubulin with 1 mM GTP, 10% glycerol and 10% DMSO at 35° C. for 30 minutes, followed by shearing by passing the assembled microtubules 6 times through a 27 gauge needle. Microtubule assembly was assayed by adding 27.5 ul of microtubule seeds to spectrophotometer cuvettes (maintained at 35° C.) containing 247.5 ul purified bovine brain tubulin in a PEM-100 buffer (100 mM Pipes pH=6.8, 1 mM […], 1 mM MgSO4) supplemented with 1 mM GTP (and drug where applicable) and monitoring the OD400 for 2 hours. Since the compounds are dissolved in DMSO and DMSO can have a significant effect on microtubule assembly, DMSO was added to all cuvettes so as to equal the largest volume of drug added to reactions. It should be noted that the initial velocity of the microtubule assembly reactions is so fast that one can not always catch the initial rise on the light scattering profile because it is occurring while samples are being prepared. However, all samples start at the same optical density, since they are identical with the exception of the drug being introduced.

mouse Lewis lung cancer = experiment: In vivo antitumor efficacy, mouse Lewis lung cancer model, Example 3 (ACEA100108); conditions: for Inhibition rate (%): vs solvent control
Procedure: For human tumor xenograft models, cancer cells were passed twice in vivo before being transplanted into the nude mice for the study. Cultured human cancer cells in flask were first xenograft-transplanted in immunodeficient nude mice. After the cancer cells grew to a tumor of certain sizes in the nude mice, the tumor was removed form the nude mice and tumor tissues were dissected. The cell suspensions were prepared from the dissected tumor tissue and transplanted back to immunodeficient nude mice again (i.e. the second passage of cancer cells in human cancer xenograft-transplanted model). After the cancer cells grew to certain size, the tumor was removed from nude mice and the tumor tissues were dissected. The cell suspensions were prepared from dissected tissues and were used for the study of human cancer xenograft models described here.
Both male and female mice were used. However, for each experiment, animals of same sex were used. For the mouse transplanted tumor model, the numbers of animals tested were as follows: 10 for each dose group, 10 for positive control group and 20 for negative control group. For human tumor xenograft model, the numbers of animals tested were as follows: 6 for each dose group, 6 for positive control group and 12 for negative control group.
Test control. For negative control, each mouse was administered intravenously with the solvent only having the same volume and same concentration as those used in high dose ACEA100108 test, once a day, for 7 consecutive days. […] In a reference group, DBTS was administered intravenously at 50 mg/kg, once a day for 7 consecutive days.
Preparation and Administration of Test Compounds. […] Each time before use, this solution was diluted in normal saline to achieve desired ACEA100108 concentrations. Each mouse (about 20 g in weight) was administered intravenously with the compound solution of 0.5 mL at a controlled injection speed of 0.5 ml/0.5 min. 24 hrs after the tumor transplantation, intravenous injections of compound solutions into carrier mice were performed once a day, for consecutive 7 or 10 days.
Preparation of Tumor Cells for Transplantation and Determination of Compound Efficacy. To prepare the cancer cells for mouse Lewis lung cancer model, human breast cancer xenograft model and human colon cancer xenograft model, the fast growing tumors were first removed from the transplanted tumor mice. The tumor tissues were dissected and tumor cell suspensions were prepared in normal saline to have a concentration of 2-4×10^7 cells/ml. 0.2 ml of cell suspension was subcutaneously injected into the axillary region (right-side) of each mouse. […] Between two and four weeks after transplantation, mice were sacrificed and the transplanted tumors were removed from experimental mice.

[5] = 50 mg/kg iv x7 qd, 7 days after transplantation
[6] = 50 mg/kg/d iv x7 qd, vs solvent control
[7] = 25 d (end), listed as ACEA100101

c1ccc(CSSSCc2ccccc2)cc1 [DBTS, Dibenzyl trisulfide]
animal No. beginning/end (survivors) [1]: 10/0 | Average life span X ± SD ([1]; observed within 30 days): 10.6 ± 1.26 | Life span ratio % ([1]; vs solvent control): 109.28% | Mice with palpable tumor / total mice [2, 5]: 2/6†† | Tumor volume (cm^3) [2, 5]: 0.01 cm^3 | Tumor volume (cm^3) ([2]; 50 mg/kg iv x7 qd, 14 d): 0.014 ± 0.01 cm^3 | Tumor volume (cm^3) ([2]; 50 mg/kg iv x7 qd, 21 d): 0.079 ± 0.01 cm^3 | Tumor volume (cm^3) ([2]; 50 mg/kg iv x7 qd, 24 d (end), listed as ACEA100101): 0.196 cm^3 and 0.196 ± 0.02 cm^3 | TV inhibition rate % T/C ([2]; 50 mg/kg/d iv x7 qd): 11.17% | Tumor weight ([2]; 50 mg/kg/d iv x7 qd): 0.568 ± 0.07 g | Body weight of mice ([2]; 50 mg/kg/d iv x7 qd, 0 day (beginning), listed as ACEA100101): 18.0 g and 18 ± 1 g | Body weight of mice ([2]; 50 mg/kg/d iv x7 qd, 7 day): 18.7 ± 0.8 g | Body weight of mice ([2]; 50 mg/kg/d iv x7 qd, 14 d): 20.3 ± 0.8 g | Body weight of mice ([2]; 50 mg/kg/d iv x7 qd, 21 d): 22 ± 0.6 g | Body weight of mice ([2]; 50 mg/kg/d iv x7 qd, 24 d (end), listed as ACEA100101): 22.8 g and 22.8 ± 1.6 g | tumor inhibition rate % [2, 6]: 66.98% | TV inhibition rate % T/C (HCT-8 human colon cancer): 32.17% | Tumor weight (HCT-8 human colon cancer): 0.825 ± 0.07 g | Mouse Body weight (HCT-8 human colon cancer; 0 Day (beginning), listed as ACEA100101): 18.2 g and 18.2 ± 1.2 g | Mouse Body weight (HCT-8 human colon cancer; 7 d): 18.8 ± 1 g | Mice with palpable tumor / total mice (HCT-8 human colon cancer; 7 day after transplantation): 4/6†† | Tumor volume (cm^3) (HCT-8 human colon cancer; 7 day after transplantation): 0.01 cm^3 | Mouse Body weight (HCT-8 human colon cancer; 14 d): 19.5 ± 1 g | Tumor volume (cm^3) (HCT-8 human colon cancer; 14 d): 0.031 ± 0.02 cm^3 | Mouse Body weight (HCT-8 human colon cancer; 21 d): 20.7 ± 0.8 g | Tumor volume (cm^3) (HCT-8 human colon cancer; 21 d): 0.204 ± 0.03 cm^3 | Mouse Body weight (HCT-8 human colon cancer; [7]): 23.0 g and 23 ± 1.3 g | Tumor volume (cm^3) (HCT-8 human colon cancer; [7]): 0.502 cm^3 and 0.502 ± 0.18 cm^3 | tumor inhibition rate % (HCT-8 human colon cancer; vs solvent control): 46.08% | Body weight of mice ([3]; 0 d (beginning), listed as ACEA100101): 17.3 g and 17.3 ± 1 g | Mice with palpable tumor / total mice ([3]; 7 D after transplantation): 2/6 | Tumor volume (cm^3) ([3]; 7 D after transplantation): 0.01 cm^3 | Body weight of mice ([3]; 7 d): 17.3 ± 1.4 g | Body weight of mice ([3]; 14 d): 18.8 ± 1.2 g | Mice with palpable tumor / total mice ([3]; 14 d): 6/6 | Tumor volume (cm^3) ([3]; 14 d): 0.01 cm^3 | Body weight of mice ([3]; 21 d): 19.5 ± 1 g | Tumor volume (cm^3) ([3]; 21 d): 0.129 ± 0.01 cm^3 | Tumor volume (cm^3) ([3]; 24 d): 0.225 ± 0.04 cm^3 | Body weight of mice ([3]; 24 d (end), listed as ACEA100101): 21.3 g and 21.3 ± 1.2 g | Tumor weight ([3]; 50 mg/kg/d iv x7 qd): 0.602 ± 0.10 g | tumor inhibition rate % [3, 6]: 57.30% | Effect on extent of microtubule assembly [4]: inhibit the extent of microtubule assembly significantly | Animal No. beginning/end (survival) (mouse Lewis lung cancer; 25 mg/kg/d iv x7 qd): 10/10 | Animal weight (g) beginning (mouse Lewis lung cancer; 25 mg/kg/d iv x7 qd): 20.5 g | Animal weight (g) end (mouse Lewis lung cancer; 25 mg/kg/d iv x7 qd): 23.6 g | Tumor weight (mouse Lewis lung cancer; 25 mg/kg/d iv x7 qd): 1.14 ± 0.17 g | Inhibition rate (%) (mouse Lewis lung cancer; 25 mg/kg/d iv x7 qd): 57.93% | Animal No. beginning/end (survival) (mouse Lewis lung cancer; 100 mg/kg/d iv x7 qd): 10/6 | Animal weight (g) beginning (mouse Lewis lung cancer; 100 mg/kg/d iv x7 qd): 20.7 g | Animal weight (g) end (mouse Lewis lung cancer; 100 mg/kg/d iv x7 qd): 23.1 g | Tumor weight (mouse Lewis lung cancer; 100 mg/kg/d iv x7 qd (text: administered only 5 times because of toxicity)): 1.00 ± 0.15 g | Inhibition rate (%) (mouse Lewis lung cancer; 100 mg/kg/d iv x7 qd (text: only 5 times because of toxicity)): 63.10%
